The values that follow come from US20080226596A1, “Therapeutic compositions and methods useful in treating hepatitis” (priority 2006, published 2008).

Each structure is given as a SMILES string.

The subject of data set [1] is DU145 human prostate carcinoma xenografts. The experiment in a line: DU145 xenografts in nude mice. It counts as in vivo. Particulars: 440 mg/kg daily. The method, then: The dosage of sodium stibogluconate corresponds to approximately 440 mg Sb/kg body weight (average mouse body weight 27 g), substantially higher than the standard therapeutic dose of 20 mg Sb/kg and the high dose (143 mg Sb/kg) that was clinically used by accident without serious toxicity. This dose of sodium stibogluconate was based on a previous observation in a pilot study that mice could tolerate daily dose of 20 mg Sb (approximately 700-800 mg Sb/kg). […] In light of the relatively rapid rate of clearance of the drug in vivo, 440 mg Sb/kg dosage was used to ensure the detection of the effectiveness of the drug for this initial study.
For each of the cell lines, each of 16 mice received subcutaneous injection at the chest area of 3×10^6 cells/site (WM9) or 2×10^6 cells/site (DU145), two sites/mouse, on day 0. Mice were separated into four groups of four to receive treatment, injected into the thigh area starting on day 2. Tumor size was measured with a caliper to determine the two perpendicular diameters of each tumor. Tumor volume was calculated using the method of the NCI (length×width 2 in millimeters/2=volume in cubic millimeters). […]

For a further data set, the target named is T1, PRL-3 (Homo sapiens, UniProt O75365).
T1 construct: GST (N); made in house; host or cells: DHSa (DH5a) bacteria
The experiment in a line: In vitro PTPase assay, recombinant PRL-3. The data set is classed as biochemical. Particulars: 10 μg/ml, pre-incubation 30 or 60 minutes. The text has this: Sodium stibogluconate, suramin, sodium orthovanadate and GST fusion protein of SHP-1 have been described previously (Pathak et al., J. Imumol. 167, 3391 (2001)). Meglumine antimonate was obtained from Aventis. cDNAs of human PRL-1, PRL-2 and PRL-3 coding region were derived by RT-PCR from H9 cells (Safai, et al., Lancet 1, 1438 (1984)) and inserted in frame into the pGEX vector. cDNA of PRL-1R86 was generated by recombinant DNA technique using PRL-1 cDNA as template following established procedures (Jiao, et al., Mol. Cell. Biol. 16, 6985 (1996)). […]
In vitro PTPase assays were used to determine the effects of compounds on recombinant PTPases, following established procedures using a synthetic phosphotyrosine peptide or DiFMUP as the substrate (Pathak et al., J. Imumol. 167, 3391 (2001)). […] PTPase activity of individual reactions was measured by adding 100 µL of malachite green solution (UBI) and then quantifying the amounts of free phosphate cleaved by the PTPase from the peptide substrate by spectrometry (OD660 nm). […] Relative PTPase activities were calculated based on the formula: (PTPase activity in the presence of an inhibitory compound/PTPase activity in the absence of the compound)× 100%. […]

T1 sequence (O75365 whole entry): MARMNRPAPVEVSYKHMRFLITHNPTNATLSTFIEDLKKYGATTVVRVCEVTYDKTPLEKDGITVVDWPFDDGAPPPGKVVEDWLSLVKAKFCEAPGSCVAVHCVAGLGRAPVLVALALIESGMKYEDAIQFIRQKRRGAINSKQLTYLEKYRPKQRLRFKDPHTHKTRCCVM

As to `O.O.O.O.O.O.O.O.O.O=C([O-])[C@@H]1[O][Sb]2([O-])([O][Sb]34([OH])[O][C@H]([C@H](O)CO)[C@H]([O]3)[C@H](C(=O)[O-])[O]4)[O][C@H]([C@H](O)CO)[C@@H]1[O]2.[Na+].[Na+].[Na+]` [sodium stibogluconate], the “histology of major organs” value in data set [1] was “unremarkable”. The “survival of DU145-inoculated mice” value in data set [1] (until the end of the study) is recorded as “survived”. For the same compound, the “inactivation of PRL-3” value at PRL-3 is given as “nearly complete inactivation”.
